Source: ChEMBL document CHEMBL1201862, “PubChem BioAssay data set” (2004)
Active and inactive are the calls of the source.

How the values were obtained:
[1] = molecular target: Cytochrome P450 2C19 (Homo sapiens, UniProt P33261); test: Cytochrome panel assay with activity outcomes. Panel member name: p450-cyp2c19 Compounds with AC50 equal or less than 10 uM are considered active; type: functional
[2] = molecular target: T1, Cytochrome P450 3A4 (Homo sapiens, UniProt P08684)
[3] = molecular target: Induced myeloid leukemia cell differentiation protein Mcl-1 (Homo sapiens, UniProt Q07820); type: functional
[4] = molecular target: T1, Cytochrome P450 3A4; conditions: Potency
[5] = test system: Vero; test: cells; type: functional, Chlorocebus sabaeus; conditions: Chlorocebus sabaeus, Vero
[6] = test system: Vero; test: cells; type: functional, cell-based; conditions: Chlorocebus sabaeus
[7] = molecular target: T2, Short transient receptor potential channel 4 (Mus musculus, UniProt Q9QUQ5); test: block of DAMGO-driven TRPC4 calcium entry – cell-based, HEK293 TRPC4/mu-opioid, Fluo-4 calcium, dose response (AID 434942); type: functional;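 note: potency of inhibitors blocking the TRPC4 calcium response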
T2 sequence (Q9QUQ5 whole entry): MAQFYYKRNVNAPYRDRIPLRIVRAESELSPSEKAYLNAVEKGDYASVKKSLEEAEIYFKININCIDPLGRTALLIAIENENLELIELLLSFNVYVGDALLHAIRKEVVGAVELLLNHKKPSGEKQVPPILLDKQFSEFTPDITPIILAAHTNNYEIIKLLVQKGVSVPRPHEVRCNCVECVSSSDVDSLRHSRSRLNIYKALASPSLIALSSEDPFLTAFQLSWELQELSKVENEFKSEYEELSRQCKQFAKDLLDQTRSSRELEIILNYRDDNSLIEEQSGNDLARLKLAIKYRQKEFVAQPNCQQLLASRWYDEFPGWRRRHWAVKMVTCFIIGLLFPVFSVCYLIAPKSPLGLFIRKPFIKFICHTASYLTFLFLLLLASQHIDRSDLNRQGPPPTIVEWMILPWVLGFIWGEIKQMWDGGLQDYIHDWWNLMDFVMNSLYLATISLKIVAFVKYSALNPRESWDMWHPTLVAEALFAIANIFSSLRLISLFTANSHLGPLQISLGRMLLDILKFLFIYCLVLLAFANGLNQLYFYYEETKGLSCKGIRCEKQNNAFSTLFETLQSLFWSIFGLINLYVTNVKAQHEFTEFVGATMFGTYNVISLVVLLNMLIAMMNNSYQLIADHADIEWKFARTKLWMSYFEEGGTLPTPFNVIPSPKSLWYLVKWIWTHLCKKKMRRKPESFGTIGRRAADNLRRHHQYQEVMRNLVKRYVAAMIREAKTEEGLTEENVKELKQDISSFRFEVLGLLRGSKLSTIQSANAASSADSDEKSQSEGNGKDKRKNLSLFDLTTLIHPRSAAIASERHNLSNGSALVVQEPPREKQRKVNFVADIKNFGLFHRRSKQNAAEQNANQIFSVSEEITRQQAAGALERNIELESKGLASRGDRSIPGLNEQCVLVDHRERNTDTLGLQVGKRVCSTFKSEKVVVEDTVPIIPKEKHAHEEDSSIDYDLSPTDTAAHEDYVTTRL

[8] = test system: BJ; test: BJ-TERT-LT-ST fibroblast viability loss – cell-based, RAS-independent, luminescence, dose response (AID 1935); type: functional; conditions: Homo sapiens;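 note: BJ fibroblasts immortalized with TERT plus LT and ST oncogenes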
[9] = Luminescence Cell-Based Dose Retest to Confirm Inhibitors of Cancer Stem Cells. [Related pubchem assays (depositor defined):AID2717, AID2721]; type: functional; conditions: Homo sapiens
[10] = test system: BJ; test: BJ-TERT fibroblast viability loss – cell-based, RAS-independent, luminescence, dose response (AID 1933); type: functional; conditions: Homo sapiens
[11] = DRD fibroblast viability loss – cell-based, non-viral oncogenic, luminescence, dose response (AID 1934); type: functional; conditions: Homo sapiens
[12] = molecular target: Nonstructural protein 1 (Influenza A virus, UniProt Q194T2); type: functional, Influenza A virus (A/California/07/2009(H1N1))
[13] = test system: BJ; test: cells; type: functional, cell-based; conditions: Homo sapiens
[14] = test system: BJ; test: growth inhibition of engineered Ras-driven BJ cells – cell-based, alamar blue fluorescence, cherrypicked samples, dose response (AID 2631); type: functional; conditions: Homo sapiens;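 note: confirmatory dose-response assay in RAS-dependent BJ fibroblasts engineered with TERT, LT and ST, with cytotoxicity read by fluorescence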
[15] = molecular target: T1, Cytochrome P450 3A4; remark: listed apart in the source
[16] = molecular target: Cytochrome P450 2D6 (Homo sapiens, UniProt P10635);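 note: CYP2D6 member of a cytochrome P450 panel assay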
[17] = molecular target: T3, Caspase-6 (Homo sapiens, UniProt P55212); test: inhibition of CASP6 peptide cleavage – biochemical, VEID-R110 fluorescence, cherry-pick, dose response (AID 720632)
T3 sequence (P55212 whole entry): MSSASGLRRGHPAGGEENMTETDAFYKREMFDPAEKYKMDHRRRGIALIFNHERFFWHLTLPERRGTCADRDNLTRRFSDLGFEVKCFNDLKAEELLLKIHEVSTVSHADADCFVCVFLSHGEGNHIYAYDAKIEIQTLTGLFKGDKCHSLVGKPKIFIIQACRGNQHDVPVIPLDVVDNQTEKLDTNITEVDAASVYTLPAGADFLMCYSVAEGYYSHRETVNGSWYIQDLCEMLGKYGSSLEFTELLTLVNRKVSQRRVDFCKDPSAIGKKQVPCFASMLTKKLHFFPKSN

[18] = molecular target: T4, Voltage-gated N-type calcium channel alpha-1B subunit/Amyloid beta A4 precursor protein-binding family A member 1 (Homo sapiens, UniProt Q00975+Q02410); type: protein assay
[19] = molecular target: T4, Voltage-gated N-type calcium channel alpha-1B subunit/Amyloid beta A4 precursor protein-binding family A member 1; type: protein assay; remark: listed apart in the source
[20] = molecular target: Large T antigen (Simian virus 40, UniProt P03070); type: functional, Betapolyomavirus macacae;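 note: Confirmatory-stage PubChem screen for compounds that inhibit SV40 T antigen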
[21] = molecular target: Cytochrome P450 2C9 (Homo sapiens, UniProt P11712)
[22] = Luminescence Cell-Based Dose Response HTS to Identify Inhibitors of 5'UTR Stem-Loop Driven Prion Protein mRNA Translation in H4 Neuroglioblastoma Cells. [Related pubchem assays: 1827 (Project Summary), 1813 (Primary HTS)]; type: functional
[23] = luciferase reporter signal suppression in cells – H4 neuroglioma cells, luminescence, dose response (AID 1990); type: functional, cell-based
[24] = alpha-synuclein stem-loop luciferase translation blockers – H4 neuroglioma cells, luminescence, confirmation (AID 1988); type: functional, cell-based
[25] = test system: Streptococcus; test: GAS UMAA2166 growth inhibition – luminescence, BacTiterGlo, counter-screen for streptokinase expression inhibitor project, dose response (AID 1915); type: functional, organism-based;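 note: potency for reduction of bacterial viability or growth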
[26] = test system: Streptococcus sp. 'group A'; test: Streptococcus pyogenes SK(-)GAS viability under kanamycin – luminescence, BacTiterGlo, confirmation, counter-screen for streptokinase expression inhibitor project, dose response (AID 1900); type: functional, organism-based

T4 sequence (Q00975 whole entry): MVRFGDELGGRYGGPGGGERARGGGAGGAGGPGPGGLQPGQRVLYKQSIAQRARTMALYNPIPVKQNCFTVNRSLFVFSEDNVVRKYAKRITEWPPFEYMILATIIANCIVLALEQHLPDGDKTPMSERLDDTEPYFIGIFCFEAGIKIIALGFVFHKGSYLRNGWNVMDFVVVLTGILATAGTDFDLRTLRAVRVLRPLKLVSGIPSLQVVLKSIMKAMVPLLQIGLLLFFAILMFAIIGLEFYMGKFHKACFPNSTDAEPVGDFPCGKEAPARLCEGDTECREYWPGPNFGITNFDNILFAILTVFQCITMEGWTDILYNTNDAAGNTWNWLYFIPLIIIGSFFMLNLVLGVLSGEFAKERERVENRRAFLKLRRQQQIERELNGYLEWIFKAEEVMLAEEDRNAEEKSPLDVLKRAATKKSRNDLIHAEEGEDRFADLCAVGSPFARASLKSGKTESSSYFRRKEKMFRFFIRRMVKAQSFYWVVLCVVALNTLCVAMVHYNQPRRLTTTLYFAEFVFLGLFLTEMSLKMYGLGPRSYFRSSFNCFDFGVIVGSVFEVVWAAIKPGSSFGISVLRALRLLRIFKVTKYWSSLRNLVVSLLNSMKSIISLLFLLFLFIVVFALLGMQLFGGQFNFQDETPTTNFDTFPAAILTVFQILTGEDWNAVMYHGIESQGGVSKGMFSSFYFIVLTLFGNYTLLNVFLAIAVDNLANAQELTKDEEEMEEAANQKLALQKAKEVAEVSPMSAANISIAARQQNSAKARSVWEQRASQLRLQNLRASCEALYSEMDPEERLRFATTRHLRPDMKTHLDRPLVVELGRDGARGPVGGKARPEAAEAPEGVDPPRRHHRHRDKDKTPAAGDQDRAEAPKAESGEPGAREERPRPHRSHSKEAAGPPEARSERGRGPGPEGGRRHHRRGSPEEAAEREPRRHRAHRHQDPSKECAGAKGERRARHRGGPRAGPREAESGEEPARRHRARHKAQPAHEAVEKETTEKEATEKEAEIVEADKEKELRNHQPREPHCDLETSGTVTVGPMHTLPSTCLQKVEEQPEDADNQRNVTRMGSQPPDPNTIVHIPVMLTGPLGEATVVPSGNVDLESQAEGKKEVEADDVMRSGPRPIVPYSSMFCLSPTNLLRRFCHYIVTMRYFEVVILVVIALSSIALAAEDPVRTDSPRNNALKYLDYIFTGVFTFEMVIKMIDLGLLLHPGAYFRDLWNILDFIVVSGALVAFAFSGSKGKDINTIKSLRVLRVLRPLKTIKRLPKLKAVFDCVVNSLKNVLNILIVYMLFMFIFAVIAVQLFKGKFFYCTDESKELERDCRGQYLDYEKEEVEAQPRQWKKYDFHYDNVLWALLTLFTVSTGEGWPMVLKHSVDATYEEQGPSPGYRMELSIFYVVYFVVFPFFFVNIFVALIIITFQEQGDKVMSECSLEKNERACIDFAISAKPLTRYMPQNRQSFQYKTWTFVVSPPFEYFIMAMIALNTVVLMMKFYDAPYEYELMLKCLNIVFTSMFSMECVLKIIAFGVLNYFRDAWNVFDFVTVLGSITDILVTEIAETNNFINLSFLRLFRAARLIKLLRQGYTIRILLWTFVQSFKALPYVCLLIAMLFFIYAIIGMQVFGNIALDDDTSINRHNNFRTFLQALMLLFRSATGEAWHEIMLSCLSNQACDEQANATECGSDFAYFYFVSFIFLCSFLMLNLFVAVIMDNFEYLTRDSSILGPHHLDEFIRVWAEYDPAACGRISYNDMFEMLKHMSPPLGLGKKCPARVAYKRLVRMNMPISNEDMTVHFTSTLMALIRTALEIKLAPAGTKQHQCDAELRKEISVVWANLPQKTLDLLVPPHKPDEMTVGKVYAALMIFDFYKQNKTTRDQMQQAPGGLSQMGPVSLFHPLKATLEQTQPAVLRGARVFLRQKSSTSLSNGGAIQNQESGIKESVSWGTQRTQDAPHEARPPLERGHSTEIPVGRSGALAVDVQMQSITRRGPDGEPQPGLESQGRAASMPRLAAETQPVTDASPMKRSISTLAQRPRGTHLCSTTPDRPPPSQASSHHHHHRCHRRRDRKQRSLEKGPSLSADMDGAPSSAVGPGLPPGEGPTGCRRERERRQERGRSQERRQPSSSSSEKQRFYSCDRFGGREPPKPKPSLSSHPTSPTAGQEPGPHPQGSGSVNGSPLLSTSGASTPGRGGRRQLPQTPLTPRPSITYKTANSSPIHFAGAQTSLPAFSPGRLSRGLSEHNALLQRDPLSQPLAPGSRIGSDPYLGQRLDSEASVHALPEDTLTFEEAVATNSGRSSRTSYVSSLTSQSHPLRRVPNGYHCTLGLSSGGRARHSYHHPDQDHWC
T4 sequence (Q02410 whole entry): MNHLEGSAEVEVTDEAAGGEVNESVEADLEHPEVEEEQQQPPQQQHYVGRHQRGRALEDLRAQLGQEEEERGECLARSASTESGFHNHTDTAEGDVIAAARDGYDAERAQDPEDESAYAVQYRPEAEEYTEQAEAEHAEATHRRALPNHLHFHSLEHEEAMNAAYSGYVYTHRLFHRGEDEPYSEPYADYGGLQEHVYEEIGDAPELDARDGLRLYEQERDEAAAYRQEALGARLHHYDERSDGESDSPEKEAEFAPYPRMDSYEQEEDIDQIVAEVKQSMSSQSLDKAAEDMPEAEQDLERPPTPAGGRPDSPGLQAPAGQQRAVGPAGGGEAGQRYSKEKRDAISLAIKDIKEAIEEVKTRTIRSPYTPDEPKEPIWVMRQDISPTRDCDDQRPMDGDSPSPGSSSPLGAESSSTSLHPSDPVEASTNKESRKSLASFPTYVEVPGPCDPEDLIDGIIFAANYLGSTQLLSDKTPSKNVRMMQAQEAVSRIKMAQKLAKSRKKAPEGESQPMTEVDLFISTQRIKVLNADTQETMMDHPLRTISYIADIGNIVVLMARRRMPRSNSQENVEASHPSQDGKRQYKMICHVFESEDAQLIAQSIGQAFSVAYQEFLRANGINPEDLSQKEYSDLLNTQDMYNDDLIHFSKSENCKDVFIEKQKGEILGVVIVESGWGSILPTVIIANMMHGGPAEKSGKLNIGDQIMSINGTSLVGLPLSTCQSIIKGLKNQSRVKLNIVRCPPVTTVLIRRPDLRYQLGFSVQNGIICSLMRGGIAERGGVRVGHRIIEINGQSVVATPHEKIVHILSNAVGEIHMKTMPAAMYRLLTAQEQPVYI
T1 sequence (P08684 whole entry): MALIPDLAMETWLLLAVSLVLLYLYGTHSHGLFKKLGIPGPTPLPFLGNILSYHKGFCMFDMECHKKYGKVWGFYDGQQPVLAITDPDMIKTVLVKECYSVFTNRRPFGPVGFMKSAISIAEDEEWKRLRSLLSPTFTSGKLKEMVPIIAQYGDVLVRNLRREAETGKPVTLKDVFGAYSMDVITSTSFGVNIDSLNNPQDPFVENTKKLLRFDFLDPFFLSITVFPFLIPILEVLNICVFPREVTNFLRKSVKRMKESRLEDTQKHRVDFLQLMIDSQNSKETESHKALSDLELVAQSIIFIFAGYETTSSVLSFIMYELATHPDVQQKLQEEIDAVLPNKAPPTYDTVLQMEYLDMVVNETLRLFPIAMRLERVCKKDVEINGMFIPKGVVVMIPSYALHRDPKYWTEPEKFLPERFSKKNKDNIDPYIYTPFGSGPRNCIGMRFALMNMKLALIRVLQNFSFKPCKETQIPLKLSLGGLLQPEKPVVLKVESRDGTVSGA
Chain of Cytochrome P450 2C19 (P33261 whole entry): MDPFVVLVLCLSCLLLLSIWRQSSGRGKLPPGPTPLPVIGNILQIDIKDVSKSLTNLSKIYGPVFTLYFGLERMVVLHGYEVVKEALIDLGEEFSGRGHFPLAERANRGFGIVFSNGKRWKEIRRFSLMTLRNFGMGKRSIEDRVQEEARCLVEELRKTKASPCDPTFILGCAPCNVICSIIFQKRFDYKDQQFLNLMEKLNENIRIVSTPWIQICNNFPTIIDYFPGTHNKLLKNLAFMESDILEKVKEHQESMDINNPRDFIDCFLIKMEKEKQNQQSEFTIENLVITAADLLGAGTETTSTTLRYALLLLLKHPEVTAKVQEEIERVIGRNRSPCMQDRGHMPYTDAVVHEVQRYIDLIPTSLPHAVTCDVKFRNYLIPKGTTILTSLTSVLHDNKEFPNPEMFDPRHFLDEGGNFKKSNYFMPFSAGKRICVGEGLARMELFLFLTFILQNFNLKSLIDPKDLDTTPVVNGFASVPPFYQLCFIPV
Chain of Cytochrome P450 2C9 (P11712 whole entry): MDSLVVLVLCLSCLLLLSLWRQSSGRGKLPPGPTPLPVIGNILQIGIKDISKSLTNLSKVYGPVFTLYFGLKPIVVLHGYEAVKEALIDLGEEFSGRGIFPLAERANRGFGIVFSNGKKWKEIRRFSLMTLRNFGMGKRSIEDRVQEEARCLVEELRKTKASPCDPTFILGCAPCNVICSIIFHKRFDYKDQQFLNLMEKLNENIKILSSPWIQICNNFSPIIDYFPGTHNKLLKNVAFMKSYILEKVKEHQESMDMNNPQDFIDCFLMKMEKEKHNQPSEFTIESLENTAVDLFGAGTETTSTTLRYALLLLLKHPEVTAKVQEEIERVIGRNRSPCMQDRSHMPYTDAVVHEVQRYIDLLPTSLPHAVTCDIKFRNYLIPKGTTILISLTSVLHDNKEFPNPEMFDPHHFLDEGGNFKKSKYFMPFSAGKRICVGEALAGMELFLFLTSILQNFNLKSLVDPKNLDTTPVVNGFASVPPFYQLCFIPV
Chain of Nonstructural protein 1 (Q194T2 whole entry): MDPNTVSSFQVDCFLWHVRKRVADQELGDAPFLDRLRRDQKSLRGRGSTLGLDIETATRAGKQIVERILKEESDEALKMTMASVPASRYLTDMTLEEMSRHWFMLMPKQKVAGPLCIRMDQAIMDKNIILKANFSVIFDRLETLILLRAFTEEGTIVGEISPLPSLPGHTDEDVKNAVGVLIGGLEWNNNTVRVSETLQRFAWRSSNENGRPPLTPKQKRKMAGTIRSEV

In the case of O=C(O)/C=C/C(=O)Nc1ccc(F)cc1F, the AC50 ([1]; read-out: AC50) is reported as 39.8 µM (inconclusive) and the AC50 [2] is reported as “inconclusive”.
With CC(C)CCC(CCN1CCCC1)c1ccc2c(c1)OCO2 (configuration not stated) the IC50 [3] was 6.38 µM (not active).
In the case of Cn1c(=O)c(-c2ccc(Cl)cc2)nc2cnc(Oc3ccccc3)nc21, the AC50 [2] is reported as “inconclusive”.
In the case of CC(=O)N1CC=CC1(C)C(=O)O (configuration not stated), the AC50 [4] is reported as 20 µM (inconclusive).
In the case of O=C(Cc1coc2ccc3ccccc3c12)Nc1nnc(C2CC2)s1, the CC50 [5] is reported as > 25 µM (active) and the IC50 [6] is reported as 21.7 µM (active).
With Cc1cc(N2CCCCCC2)nc2ccccc12 the EC50 [7] was 1.33 µM (active).
For Cc1cccnc1NC(=O)C12CCC(C)(C(=O)O1)C2(C)C (configuration not stated), the AC50 [1] was “inconclusive” and the AC50 [2] was “inconclusive”.
For CCN(CC)CCCNC(=O)c1cc(-c2ccccc2)c(N2CCCCC2)s1, the EC50 [8] was 12.8 µM (inconclusive), the AC50 [9] was 3.79 µM (active) and the EC50 [10] was 9.67 µM (active). For the same compound, the EC50 [11] was 10.1 µM (active), the IC50 [12] was 88.3 µM (active) and the EC50 [13] was 28.8 µM (active). The EC50 [14] was > 133 µM (inactive).
For CCCCc1nc(SCCOC)c2c(=O)n(C)c(=O)n(C)c2n1, the EC50 [7] was 1.5 µM (active).
With N#Cc1c(N2CCCCC2)nc(N)c2c(N)nc3c(c12)CC(c1ccccc1)O3 (configuration not stated) the AC50 [15] was 1 µM (inconclusive), the AC50 [16] was 25.1 µM (inconclusive) and the EC50 [7] was 2.99 µM (active).
For COc1cccc(N2C(=O)NC(=O)/C(=C\c3ccc([N+](=O)[O-])s3)C2=O)c1, the AC50 [17] was 43 µM (active), the IC50 [18] was 6.66 µM (active) and the IC50 [19] was 13.5 µM (active). For the same compound, the IC50 [20] was 32.4 µM (active).
In the case of CCC1=C2CC[C@H]3C(=O)NC(=O)[C@H]3[C@H]2[C@@]2(Cc3ccccc3)/C(=N/CC(=O)OC)OC(=O)N2C1=O, the AC50 [4] is reported as 15.8 µM (inconclusive).
In the case of C=CCn1cnc2scc(-c3ccc(CC)cc3)c2c1=O, the EC50 [7] is reported as 5.96 µM (active).
With CCOC(=O)c1sc(=S)n(-c2cccc(C(F)(F)F)c2)c1SC the AC50 [21] was 1.58 µM (inconclusive) and the AC50 [2] was “inconclusive”.
In the case of Cn1cc(CNCC2CCCO2)c(-c2ccc(Oc3ccccc3)cc2)n1 (configuration not stated), the EC50 [7] is reported as 3.35 µM (active).
With O=C(c1csnn1)N1CCC2(CC1)CN(C(c1ccccc1)c1ccccc1)C2 the AC50 [21] was 15.8 µM (inconclusive), the AC50 ([1]; read-out: AC50) was 0.00631 µM (inconclusive) and the AC50 [16] was 12.6 µM (inconclusive). The AC50 [2] was “inconclusive”.
With O=C(CC1C(=O)NCCN1C(=O)Nc1ccc(C(F)(F)F)cc1)Nc1ccc(F)cc1 (configuration not stated) the CC50 [5] was > 25 µM (active).
In the case of COc1ccc(C(=O)N2CCC3(CC2)CCN(C(c2ccccc2)c2ccccc2)CC3)cc1, the AC50 [21] is reported as 39.8 µM (inconclusive), the AC50 [16] is reported as 12.6 µM (inconclusive) and the AC50 [2] is reported as “inconclusive”.
For COC1CC(C)C(OC)c2cc(O)cc(c2O)NC(=O)C(C)=CC=CC(C)C(OC(N)=O)C(C)=CC(C)C1OC (configuration not stated), the CC50 [5] was 12.6 µM (active).
In the case of COc1cc([C@@H]2c3cc4c(cc3[C@@H](NC3CCN(Cc5ccccc5)CC3)[C@H]3COC(=O)[C@H]23)OCO4)cc(OC)c1O, the EC50 [8] is reported as 0.297 µM (active), the EC50 [10] is reported as 1.33 µM (active) and the EC50 [11] is reported as 2.38 µM (active). For the same compound, the EC50 [14] was 0.554 µM (active).
With Cc1cccn2c(=O)c(/C=N/O)c(Nc3ccccc3F)nc12 the IC50 [18] was > 50 µM (inactive) and the IC50 [19] was 11.4 µM (active).
In the case of CCCCNC(=O)C(c1ccc(OCC(=O)OC)c(C(=O)OC)c1)N(CCOC)C(=O)CCCCCN1C(=O)NC(c2ccc(-c3ccccc3)cc2)C(C(=O)OCc2ccccc2)=C1C (configuration not stated), the AC50 [4] is reported as 3.16 µM (inconclusive).
In the case of CC1(C)N=C(N)N=C(N)N1c1ccccc1, the EC50 [22] is reported as 15.6 µM (active), the EC50 [23] is reported as 6.38 µM (active) and the EC50 [24] is reported as 1.62 µM (active). For the same compound, the EC50 [8] was > 150 µM (not active), the EC50 [10] was > 150 µM (not active) and the EC50 [25] was 1.3 µM (active). The EC50 [11] was 14.9 µM (active), the EC50 [26] was 0.357 µM (active) and the EC50 [13] was 8.15 µM (active). The EC50 [14] was > 133 µM (inactive).
In the case of COc1c(CC(=O)c2cc3c(cc2O)OC(C)(C)C(O)C3)ccc2c1C=CC(C)(C)O2 (configuration not stated) [DIHYDROMUNDULETONE], the AC50 [4] is reported as 25.1 µM (inconclusive).
